The values below are quoted from earlier work in article PMC6613765 (Journal of Virology, 2019).

Data set [1] relates to SARS-CoV. The settings on record: cited from earlier work.
Data set [2] deals with MERS-CoV. The settings on record: cited from earlier work.
The subject of data set [3] is SARS-CoV. The settings on record: mouse, in vivo; cited from earlier work.
In data set [4] the test system is HCoV-229E. As to conditions: read-out: EC50, HCoV-229E; CoV-infected human primary cells; cited from earlier work.
The subject of data set [5] is MERS-CoV. The settings on record: read-out: EC50, MERS-CoV; cited from earlier work.

Take `CCC(CC)COC(=O)[C@H](C)N[P@](=O)(OC[C@H]1O[C@@](C#N)(c2ccc3c(N)ncnn23)[C@H](O)[C@@H]1O)Oc1ccccc1` [GS-5734]: the “IC50, SARS-CoV replication” value in data set [1] is given as “submicromolar”. Further, the “IC50, MERS-CoV replication” value in data set [2] is recorded as “submicromolar”. In addition, the lung viral load result in data set [3] is listed as “significantly reduced the lung viral load”.
On to `COC(=O)[C@H]1[C@@H](O)[C@@]2(O)c3c(OC)cc(O[C@@H]4O[C@@H]([C@H](O)CO)CO[C@H]4OC)cc3O[C@@]2(c2ccc(OC)cc2)[C@@H]1c1ccccc1` [silvestrol], for which the EC50 in data set [4] was 3 nM; in data set [5], 1.3 nM.
